Measured values: PubChem BioAssay AID248 (DTP/NCI, 2004)
Values joined by “and” are separate entries in the source; they are usually repeats but may differ in a detail not shown here. Identical values can stand only once. Toxic doses and inconclusive results are not listed.

System: L1210 leukemia ip in BDF1 mice, survival T/C
Assay: NCI In Vivo Anticancer Drug Screen. Data for tumor model L1210 Leukemia (intraperitoneal) in B6D2F1 (BDF1) mice
Conditions: endpoint: mean survival time, higher = longer survival
Procedure, shortened: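 Antitumor effect is assessed in tumor-bearing animals. Survival in the compound arm is compared with a vehicle-dosed control arm and expressed as their quotient.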

[1] = dose: 100.0 mg/kg/injection, schedule: Q01DX009 (ip), vehicle: saline with Tween-80
[2] = dose: 200.0 mg/kg/injection, schedule: Q01DX009 (ip), vehicle: saline with Tween-80

In the case of `O=c1c(O)cccc2cc(O)c(O)c(O)c12`, the T/C (dose: 12.5 mg/kg/injection, schedule: Q01DX009 (ip), vehicle: saline) is reported as 100 % of control, the T/C (dose: 25.0 mg/kg/injection, schedule: Q01DX009 (ip), vehicle: saline) is reported as 94 % of control and 97 % of control and 107 % of control and the T/C (dose: 50.0 mg/kg/injection, schedule: Q01DX009 (ip), vehicle: saline) is reported as 95 % of control and 101 % of control (2×). For the same compound, the T/C (dose: 100.0 mg/kg/injection, schedule: Q01DX009 (ip), vehicle: saline) was 101 % of control and the T/C (dose: 200.0 mg/kg/injection, schedule: Q01DX009 (ip), vehicle: saline) was 94 % of control and 92 % of control.

With `COc1ccc(NC(=O)N2CCN(c3ccccc3)CC2)c(OC)c1` the T/C (dose: 100.0 mg/kg/injection, schedule: Q01DX009 (ip), vehicle: Klucel (hydroxypropylcellulose) (HPC)) was 102 % of control, the T/C (dose: 200.0 mg/kg/injection, schedule: Q01DX009 (ip), vehicle: Klucel (hydroxypropylcellulose) (HPC)) was 96 % of control and the T/C (dose: 400.0 mg/kg/injection, schedule: Q01DX009 (ip), vehicle: Klucel (hydroxypropylcellulose) (HPC)) was 96 % of control.

`O=C(OCCCl)OCCCl` was tested, and the T/C (dose: 25.0 mg/kg/injection, schedule: Q01DX009 (ip), vehicle: saline with Tween-80) was 98 % of control, the T/C (dose: 50.0 mg/kg/injection, schedule: Q01DX009 (ip), vehicle: saline with Tween-80) was 103 % of control and 91 % of control and the T/C [1] was 93 % of control. For the same compound, the T/C [2] was 92 % of control.

With `CC(=O)OCCn1c2ccccc2c2c(C)c3cnccc3c(C)c21` the T/C (dose: 37.5 mg/kg/injection, schedule: Q04DX003 (ip), vehicle: saline) was 115 % of control, the T/C (dose: 150.0 mg/kg/injection, schedule: Q04DX003 (ip), vehicle: saline) was 154 % of control and the T/C (dose: 200.0 mg/kg/injection, schedule: Q04DX003 (ip), vehicle: saline with Tween-80) was 108 % of control. For the same compound, the T/C (dose: 300.0 mg/kg/injection, schedule: Q04DX003 (ip), vehicle: saline with Tween-80) was 102 % of control and the T/C (dose: 300.0 mg/kg/injection, schedule: Q04DX003 (ip), vehicle: saline) was 290 % of control.

For `Nc1c(Cl)c(Cl)c2c(c1Cl)C(O)c1cc(Cl)ccc1-2` (centres undefined), the T/C (dose: 100.0 mg/kg/injection, schedule: Q01DX001 (ip), vehicle: carboxymethylcellulose (CMC)) was 89 % of control, the T/C (dose: 200.0 mg/kg/injection, schedule: Q01DX001 (ip), vehicle: carboxymethylcellulose (CMC)) was 95 % of control and the T/C (dose: 400.0 mg/kg/injection, schedule: Q01DX001 (ip), vehicle: carboxymethylcellulose (CMC)) was 93 % of control.

For `Cc1ccc(N=C2C=CC(=O)O2)cc1`, the T/C [1] was 98 % of control, the T/C [2] was 100 % of control and the T/C (dose: 400.0 mg/kg/injection, schedule: Q01DX009 (ip), vehicle: saline with Tween-80) was 95 % of control.

`COc1cc(NC(C)CCCN2C(=O)c3ccccc3C2=O)c2nc(-c3ccc(Cl)cc3)ccc2c1` (centres undefined) was tested, and the T/C (dose: 50.0 mg/kg/injection, schedule: Q04DX003 (ip), vehicle: saline) was 90 % of control, the T/C (dose: 100.0 mg/kg/injection, schedule: Q01DX009 (ip), vehicle: other) was 94 % of control and the T/C (dose: 100.0 mg/kg/injection, schedule: Q04DX003 (ip), vehicle: saline) was 92 % of control. The T/C (dose: 200.0 mg/kg/injection, schedule: Q01DX009 (ip), vehicle: other) was 94 % of control, the T/C (dose: 200.0 mg/kg/injection, schedule: Q04DX003 (ip), vehicle: saline) was 90 % of control and the T/C (dose: 400.0 mg/kg/injection, schedule: Q01DX009 (ip), vehicle: other) was 101 % of control. For the same compound, the T/C (dose: 400.0 mg/kg/injection, schedule: Q04DX003 (ip), vehicle: saline) was 87 % of control.

`Cn1ncc2c1NC(c1ccc(F)cc1)SCC2=O` (centres undefined) was tested, and the T/C (dose: 400.0 mg/kg/injection, schedule: Q01DX009 (ip), vehicle: gum acacia) was 108 % of control.

For `CCCCCCCCP(=O)(N1CC1CC)N1CC1CC` (centres undefined), the T/C (dose: 50.0 mg/kg/injection, schedule: Q01DX001 (ip), vehicle: saline) was 101 % of control, the T/C (dose: 100.0 mg/kg/injection, schedule: Q01DX001 (ip), vehicle: saline) was 103 % of control and the T/C (dose: 200.0 mg/kg/injection, schedule: Q01DX001 (ip), vehicle: saline) was 101 % of control.

For `CCCCCC[Si](Cl)(Cl)Cl`, the T/C (dose: 75.0 mg/kg/injection, schedule: Q01DX001 (ip), vehicle: saline) was 101 % of control and the T/C (dose: 150.0 mg/kg/injection, schedule: Q01DX001 (ip), vehicle: saline) was 91 % of control.

`C=C(N1CCCCC1)N1CCCCC1` was tested, and the T/C (dose: 100.0 mg/kg/injection, schedule: Q04DX002 (ip), vehicle: saline with Tween-80) was 100 % of control, the T/C (dose: 200.0 mg/kg/injection, schedule: Q04DX002 (ip), vehicle: saline with Tween-80) was 96 % of control and the T/C (dose: 400.0 mg/kg/injection, schedule: Q04DX002 (ip), vehicle: saline with Tween-80) was 116 % of control.
